In patent publication US4876279A, “Antihypercholesterolemic compounds” (Merck & Co., Inc., priority 1988, dated 1989):

System: HMG-CoA reductase
Assay: HMG-CoA Reductase Inhibition Assay (in vitro)
Format: biochemical, rat
Conditions: relative to compactin, arbitrarily assigned a value of 100; IC50 compared with that of compactin determined simultaneously; tested as sodium salt of dihydroxy acid form
Description: The intrinsic HMG-CoA reductase inhibition activity of the claimed compounds is measured in the in vitro protocol published in J. Med. Chem., 28, P. 347-358 (1985) and described below:
Isolation of HMG-CoA Reductase. Male Holtzman Sprague-Dawley rate (225-250 g) were kept on reversed lighting and fed Purina rat chow containing 3% cholestyramine for 7 days preceding their sacrifice by CO2 asphyxiation. Livers were removed 6 hours into the dark cycle and used immediately to prepare microsomes. […]
Test compounds or compactin (after first being converted to the sodium salt of their dihydroxy acid form in situ by addition of 1 N NaOH (1 equiv)) were added to the assay system in 10-μL volumes at multiconcentration levels. […] Five milliliters of Aquasol-2 (New England Nuclear) was added to each vial, and radioactivity was measured in a Packard Tri Carb Prias scintillation counter. IC50 values were determined by plotting percentage inhibition against test compounds concentration and fitting a straight line to the resulting data by using the least-squares method. For estimation of relative inhibitory potencies, compactin was assigned a value of 100 and the IC50 value of the test compound was compared with that of compactin determined simultaneously.

Substance	Relative Potency
6(R)-[2-8(S)-(1-Ethoxycarbonylcyclobutanecarbonyloxy)-2(S),6(R)-dimethyl-1,2,6,7,8,8a-(R)-hexahydronaphthyl-1(S)]ethyl]-4(R)-hydroxy-3,4,5,6-tetrahydro-2H-pyrane-2-one	65
6(R)-[2-[8(S)-(1-Ethoxycarbonylcyclopropanecarbonyloxy)-2(S),6(R)-dimethyl-1,2,6,7,8,8a (R)-hexahydronaphthyl-1(S)]ethyl]-4(R)-hydroxy-3,4,5,6-tetrahydro-2H-pyran-2-one	11
